Read-outs that look alike come from different tables or passages of the source.
Experiments:
[1] = target: T1, Plasmodium falciparum calcium-dependent protein kinase 1 (CDPK1) (Plasmodium falciparum, UniProt P62344); test: CDPK1 Kinase-Glo ATP-consumption screen and dose-response; assay type: biochemical; settings: hits below 1 uM; read-out: CDPK1 IC50
T1 construct: 6-Histidine (N); made in house
Summary of the method: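 Single-point testing used 1 μM final compound, then dose-response, against CDPK4 and CDPK1 with Syntide-2 (40 μM) as substrate. After 90 min, reactions were halted by 5 mM EGTA, and kinase activity was inferred from depleted ATP via Kinase-Glo luminescence.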

[2] = target: T2, Plasmodium falciparum calcium-dependent protein kinase 4 (CDPK4) (Plasmodium falciparum, UniProt Q8IBS5); test: CDPK4 Kinase-Glo ATP-consumption screen and dose-response; assay type: biochemical; settings: hits below 1 uM
T2 construct: 6-Histidine (N); made in house
T2 sequence (Q8IBS5 1-528): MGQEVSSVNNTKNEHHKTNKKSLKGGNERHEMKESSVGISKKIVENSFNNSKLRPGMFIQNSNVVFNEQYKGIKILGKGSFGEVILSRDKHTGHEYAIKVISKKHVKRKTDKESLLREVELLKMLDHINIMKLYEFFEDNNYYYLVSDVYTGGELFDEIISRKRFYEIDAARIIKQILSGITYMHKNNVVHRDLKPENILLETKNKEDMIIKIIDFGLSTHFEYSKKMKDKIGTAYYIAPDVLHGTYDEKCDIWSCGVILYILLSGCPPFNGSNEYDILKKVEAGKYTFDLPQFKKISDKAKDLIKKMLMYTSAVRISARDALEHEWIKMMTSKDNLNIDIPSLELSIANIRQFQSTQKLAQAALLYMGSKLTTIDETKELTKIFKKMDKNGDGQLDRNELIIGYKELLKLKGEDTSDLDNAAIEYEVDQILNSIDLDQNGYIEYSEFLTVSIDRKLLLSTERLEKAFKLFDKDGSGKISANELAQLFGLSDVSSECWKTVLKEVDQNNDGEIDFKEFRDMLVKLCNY
Procedure: Biochemical assays were performed in white 384-well plates (Nunc). Liquid transfers were done manually with 8-channel pipets. Compounds were initially tested in a single-point screen (final concentration 1 μM). […] The catalytic activity of each kinase was considered proportional to ATP consumed, as determined from measurements of residual [ATP] with the luciferase-based reagent Kinase-Glo (Promega) following incubation. Luminescence (proportional to residual [ATP]) was measured on the plate readers FLx800 (BioTek Instruments, Winooski, VT, USA) and MicroBeta^2 (PerkinElmer, Waltham, MA, USA). Incubation times were chosen to ensure near-complete ATP depletion in the absence of inhibition, thus maximizing the difference in signal between inhibited and uninhibited wells.
40 μM Syntide-2 was used as a substrate; BKI-1 [14] was used as a control inhibitor, while reaction mixtures lacking Syntide-2 were included as an additional negative control. Incubation time was 90 minutes. Reactions were terminated by adding excess EGTA (5 mM), which sequesters Ca^2+ and halts calcium-dependent kinase activity.

PKG [3] = target: T3, PKG (Plasmodium falciparum, UniProt Q8I719); test: PKG IC50 (supplementary data file); assay type: biochemical
Text: (§1) Supplement pone.0149996.s003.xls, sheet "combined_1_sorted"

HepG2 cells = settings: HepG2 cells, cited from earlier work
P. falciparum 3D7 cells = settings: P. falciparum 3D7, cited from earlier work
P. falciparum DD2 = system: P. falciparum DD2; set-up: method as in ChEMBL; settings: ref ChEMBL; cited from earlier work
3D7 PFLDH [4] = system: 3D7 PFLDH; set-up: method as in ChEMBL; settings: ref ChEMBL; cited from earlier work
PKG [5] = target: T3, PKG; test: PKG IC50 (supplementary data file of hits); assay type: biochemical
Text: as §1

DD2 = system: DD2; set-up: method as in F.J. Gamo et al., Nature 2010; settings: P. falciparum Dd2; downloaded from ChEMBL ref F.J. Gamo et al., Nature 2010; cited from earlier work
3D7 PFLDH [6] = system: 3D7 PFLDH; set-up: method as in F.J. Gamo et al., Nature 2010; settings: downloaded from ChEMBL ref F.J. Gamo et al., Nature 2010; cited from earlier work
[7] = downloaded from ChEMBL ref F.J. Gamo et al., Nature 2010

T3 sequence (Q8I719 whole entry): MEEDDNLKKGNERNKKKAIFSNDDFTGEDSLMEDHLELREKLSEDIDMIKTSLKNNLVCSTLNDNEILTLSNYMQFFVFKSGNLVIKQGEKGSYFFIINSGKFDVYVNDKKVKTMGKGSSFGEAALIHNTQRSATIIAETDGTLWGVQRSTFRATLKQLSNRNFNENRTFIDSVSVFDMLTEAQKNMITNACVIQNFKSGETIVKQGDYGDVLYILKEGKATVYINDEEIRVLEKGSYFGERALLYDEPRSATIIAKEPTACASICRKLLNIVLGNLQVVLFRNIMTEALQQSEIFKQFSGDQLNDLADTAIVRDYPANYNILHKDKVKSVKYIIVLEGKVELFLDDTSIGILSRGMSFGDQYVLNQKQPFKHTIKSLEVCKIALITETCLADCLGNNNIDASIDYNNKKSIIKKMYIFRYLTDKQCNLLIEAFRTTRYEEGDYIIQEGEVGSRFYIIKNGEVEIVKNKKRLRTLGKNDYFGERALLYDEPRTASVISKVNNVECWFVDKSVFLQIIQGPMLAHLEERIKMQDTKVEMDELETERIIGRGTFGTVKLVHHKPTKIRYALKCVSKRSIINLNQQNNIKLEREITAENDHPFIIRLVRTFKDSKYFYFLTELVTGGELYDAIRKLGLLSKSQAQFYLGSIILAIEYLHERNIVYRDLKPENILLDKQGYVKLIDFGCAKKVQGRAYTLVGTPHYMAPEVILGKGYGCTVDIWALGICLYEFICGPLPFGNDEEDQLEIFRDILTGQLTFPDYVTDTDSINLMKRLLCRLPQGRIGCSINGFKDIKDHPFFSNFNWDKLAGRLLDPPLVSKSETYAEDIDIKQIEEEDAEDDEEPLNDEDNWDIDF
T1 sequence (P62344 whole entry): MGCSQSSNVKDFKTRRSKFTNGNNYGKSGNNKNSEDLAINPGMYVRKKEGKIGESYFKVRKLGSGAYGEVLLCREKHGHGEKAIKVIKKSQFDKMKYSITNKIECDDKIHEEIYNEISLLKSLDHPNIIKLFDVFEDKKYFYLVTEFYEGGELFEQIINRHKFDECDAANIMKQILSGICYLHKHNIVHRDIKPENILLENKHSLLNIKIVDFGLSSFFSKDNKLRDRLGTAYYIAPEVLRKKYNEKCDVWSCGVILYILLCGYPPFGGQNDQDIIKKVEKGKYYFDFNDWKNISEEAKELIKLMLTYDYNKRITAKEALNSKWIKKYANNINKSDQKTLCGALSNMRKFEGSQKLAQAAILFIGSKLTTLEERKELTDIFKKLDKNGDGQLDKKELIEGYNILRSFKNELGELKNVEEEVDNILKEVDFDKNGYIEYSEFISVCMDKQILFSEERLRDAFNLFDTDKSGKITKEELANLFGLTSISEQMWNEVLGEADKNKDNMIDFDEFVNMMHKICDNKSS

SMILES | IC50 [1] | IC50 [2] | IC50 (PKG [3]) | PCT_INHIB_HEPG2 (HepG2 cells; ref ChEMBL) | PCT_IHB_3D7 (P. falciparum 3D7 cells; ref ChEMBL) | pXC50_3D7 (P. falciparum 3D7 cells; ref ChEMBL) | PCT_INHB_DD2 (P. falciparum DD2) | PCT_INHIB_3D7_PFLDH (3D7 PFLDH [4]) | IC50 (PKG [5]) | PCT_INHIB_HEPG2 (HepG2 cells; [7]) | PCT_IHB_3D7 (P. falciparum 3D7 cells; [7]) | pXC50_3D7 (P. falciparum 3D7 cells; [7]) | PCT_INHB_DD2 (DD2) | PCT_INHIB_3D7_PFLDH (3D7 PFLDH [6])
Cc1csc(-c2ncc(OC[C@@H](N)Cc3ccccc3)cc2-c2ccc3[nH]nc(C)c3c2)c1.O=C(O)C(F)(F)F [TCMDC-136087] | 44 nM | 420 nM | > 10000 nM | 48 | 98 | 6.078 | 35 | 4 | – | – | – | – | – | –
COCCOc1ccc(Nc2nccc(-c3c(-c4cccc(NC(=O)c5c(F)cccc5F)c4)nn4ccccc34)n2)cc1Cl [TCMDC-135955] | 152 nM | 853 nM | – | – | – | – | – | – | > 10000 nM | 53 | 99 | 6.448 | 97 | 4
COc1cc(Nc2nccc(-c3c(-c4cccc(NC(=O)c5c(F)cccc5F)c4)nn4ccccc34)n2)cc(OC)c1OC [TCMDC-135668] | 60 nM | 77 nM | – | – | – | – | – | – | > 10000 nM | 74 | 98 | 7.112 | 98 | 4
O=C(Nc1cccc(-c2nn3ncccc3c2-c2ccnc(Nc3ccccc3)n2)c1)c1c(F)cccc1F [TCMDC-134631] | 39 nM | 352 nM | – | – | – | – | – | – | > 10000 nM | 51 | 98 | 6.139 | 96 | 0
O=C(NCC(c1ccc(C(F)(F)F)cc1)N1CCCC1)c1cc(-c2ccncc2)c(-c2cccc(O)c2)o1.O=C(O)C(F)(F)F (stereo not shown) [TCMDC-135665] | 283 nM | 178 nM | – | – | – | – | – | – | 7640 nM | 9 | 95 | 5.973 | 53 | 0
CCn1c(-c2nonc2N)nc2c(-c3cccc(NC(=O)Nc4ccccc4Cl)c3)ncc(OCCCN)c21.O=C(O)C(F)(F)F [TCMDC-136192] | 72 nM | 138 nM | – | – | – | – | – | – | 566 nM | 2 | 99 | 6.173 | 74 | 0
NS(=O)(=O)c1cccc(N/C=C2\C(=O)Nc3ccc(S(=O)(=O)Cc4c(Cl)cccc4Cl)cc32)c1 [TCMDC-135947] | – | 116 nM | > 10000 nM | 1 | 92 | 6.143 | 99 | 4 | – | – | – | – | – | –
CCS(=O)(=O)c1ccc(OC)c(Nc2nccc(-c3c(-c4cccc(NC(=O)c5c(F)cccc5F)c4)nn4ncccc34)n2)c1 [TCMDC-135682] | – | 201 nM | – | – | – | – | – | – | > 10000 nM | 27 | 87 | 5.986 | 88 | 0
N#Cc1ccc(C(=O)Nc2cc(-c3cccc(O)c3)cc3[nH]ncc23)cc1 [TCMDC-134118] | – | 478 nM | > 10000 nM | 15 | 90 | 5.863 | 79 | 0 | – | – | – | – | – | –
O=C(Nc1ccccc1)Nc1cccc(-c2nn3c(OCCN4CCCC4)cccc3c2-c2ccncc2)c1 [TCMDC-135539] | – | 775 nM | – | – | – | – | – | – | > 10000 nM | 30 | 100 | 6.394 | 98 | 4
